Data on six compounds can be found in US4775758A, “Phospholipids” (Takeda Chemical Industries, Ltd., priority 1983, dated 1988).

For series [1], the system named is sarcoma 180 cells. The series is described as follows: Antitumor activity (pre-administration), intraperitoneal sarcoma 180, life span. The conditions noted are these: 1 mg/mouse i.p., 4 days before i.p. transplantation of 1×10^5 sarcoma 180 cells; ICR mice. It counts as in vivo. How it is done: Antitumor activity (pre-administration) of 1,3-dioctyloxypropane-2-yl 2-trimethylammonioethyl phosphate (Example 1)
A 1 mg/mouse of the compound of Example 1 was admixed with physiological saline, and administered intraperitoneally to ICR mice (a group consisting of 5 mice). Four days later, 1×10^5 sarcoma 180 cells per mouse was transplanted intraperitoneally to each of the mice.

The test system of series [2] is sarcoma 180 cells. The series is described as follows: Antitumor activity (simultaneous administration), intraperitoneal sarcoma 180, life span. It is filed as in vivo, ICR mice. To be noted: for rate of life prolongation against the control group: 1 mg/mouse i.p. after i.p. transplantation of 1×10^5 sarcoma 180 cells, ICR mice. How it is done:
Antitumor activity (simultaneous administration) of 1,3-dioctyloxypropane-2-yl 2-trimethylammonioethyl phosphate (Example 1)
Sarcoma 180 cells (1×10^5 cells per mouse) was transplanted intraperitoneally to ICR mice (a group consisting of 5 mice). Subsequently, the compound of Example 1 (1 mg/mouse) was dissolved in physiological saline, and administered intraperitoneally to each of the mice. In the group given the drug compound, two mice survived 60 days, and the rate of life prolongation against the control group not given the drug compound was 458.

The subject of series [3] is sarcoma 180 cells. In words: Antitumor activity, subcutaneous sarcoma 180, intraperitoneal administration, tumor weight. It is filed as in vivo. To be noted: 0.2 mg/mouse i.p., 13 times, 2nd to 20th day; tumor weight on 21st day; sarcoma 180 s.c., ICR mice. On the procedure: (§1) Antitumor activity of 1,3-dioctyloxypropane-2-yl 2-trimethylammonioethyl phosphate (Example 1)
Sarcoma 180 cells (1×10^6 cells) were transplanted subcutaneously to each of ICR mice (a group consisting of 5 mice). The compound of Example 1 was administered intraperitoneally to the mice at the single dose rate of 0.2 mg/mouse 13 times over the period of from the 2nd day to the 20th day. On the 21th day, the mice were anatomized, and the weight of tumors was measured.

The subject of series [4] is sarcoma 180 cells. The series is described as follows: Antitumor activity, subcutaneous sarcoma 180, intravenous administration, tumor weight. It is filed as in vivo. The conditions noted are these: 0.06 mg/mouse i.v., 9 times, 7th to 20th day; tumor weight on 21st day; sarcoma 180 s.c., ICR mice. How it is done:
as §1
Sarcoma 180 cells (1×10^6 cells) were transplanted subcutaneously to each of ICR mice (a group consisting of 5 mice). The compound of Example 1 was injected intravenously to the mice at the single dose rate of 0.06 mg/mouse 9 times over the period of from the 7th day after the transplantation to the 20th day. On the 21th day, the mice were anatomized, and the weight of tumors was measured.

The subject of another series is Piricularia oryzae. The series is described as follows: microbe, parasite or virus in culture. It counts as cell-based.
A further series concerns Botrytis cinerea. The series is described as follows: Antifungal action, MIC by serial dilution technique. To be noted: 1% glucose bouillon agar. It is filed as cell-based. On the procedure: (§2) Antifungal action of 1,3-dioctyloxypropane-2-yl 2-trimethylammonioethyl phosphate (Example 1)
(§3) Using typical fungi, the minimal inhibition concentrations (MIC) were determined with the compound of Example 1 by the serial dilution technique on a 1% glucose bouillon agar culture medium.

The test system of the next series is Cercospora beticola. The description is as above. It is filed as cell-based. The conditions noted are these: 1% glucose bouillon agar. How it is done: as §2, §3
Another series concerns Cladosporium herbarum. The series is described as above. It is filed as cell-based. The conditions noted are these: 1% glucose bouillon agar. On the procedure: as §2, §3
In another series the test system is Diaporthe citri. The series is described as above. To be noted: 1% glucose bouillon agar. It is filed as cell-based. How it is done:
as §2, §3

For the next series, the system named is Elsinoe fawcetti. The description is as above. It is filed as cell-based. The conditions noted are these: 1% glucose bouillon agar. How it is done: as §2, §3
The subject of the next series is Helminthosporium oryzae. The series is described as above. It counts as cell-based. To be noted: Bipolaris oryzae.
A further series concerns Penicilium citrinum. The description is as above. It is filed as cell-based. The conditions noted are these: 1% glucose bouillon agar.
A further series has as its system Mucor spinescens. Described as above. It is filed as cell-based. To be noted: 1% glucose bouillon agar.
The test system of a further series is Saccharomyces cerevisiae. The series is described as above. It counts as cell-based. To be noted: 1% glucose bouillon agar.
The conditions of series [5]: rat, in vivo, iv.
Protocol: Male 7-week aged Sprague-Dawley rats (weighing 200 to 290 g) were anesthetized by intraperitoneal administration of 60 mg/kg of pentobarbital sodium, and the left carotids (for the measurement of blood pressure) and left femoral veins (for the intravenous administration) were cannulated.
Another series relates to platelet. To be noted: Biochemical and Biophysical Research Communications, 99, 183 (1981); cited from earlier work.
For another series, the system named is P 388 leukemia cells. The series is described as follows: Antitumor activity, P 388 leukemia cells mixed with compound and transplanted subcutaneously, tumor weight. It counts as in vivo. The conditions noted are these: 1×10^6 P 388 cells mixed with 0.1 g of compound, s.c., CDF1 mice; tumor weight on 10th day. The text has this:
Antitumor activity of 1,3-dioctyloxypropane-2-yl 2-thiazolioethyl phosphate (Example 3)
P 388 leukemia cells (1×10^6 cells) were mixed with 0.1 g of the compound of Example 3, and transplanted subcutaneously to each of CDF1 mice (a group consisting of 5 mice).

Series [6] relates to sarcoma 180 cells. The series is described as follows: Antitumor activity, intraperitoneal sarcoma 180, 9 consecutive days, life span. It counts as in vivo. The conditions noted are these: 25 mg/kg i.p., 4×10^5 sarcoma 180 cells i.p., ICR mice. On the procedure: Antitumor activity of 1,3-diheptyloxypropane-2-yl 2-trimethylammonioethyl phosphate (Example 10)
Sarcoma 180 cells (4×10^5 cells per mouse) were transplanted intraperitoneally to ICR mice (a group consisting of 5 mice). The compound of Example 10 was administered intraperitoneally to the mice at the single dose rate of 25 mg/kg for 9 consecutive days from the day following transplantation.

For another series, the system named is Meth A cells. The series is described as follows: Antitumor activity, subcutaneous Meth A, administration on the transplanted portion, tumor weight. It counts as in vivo. The conditions noted are these: 0.25 mg/mouse on the transplanted portion once a day for 4 days; Meth A s.c., CDF1 mice; ten days later. On the procedure: Antitumor activity of 1,3-dinonyloxypropane-2-yl 2-trimethylammonioethyl phosphate (Example 9)
Meth A cells (1×10^6 cells per mouse) were transplanted subcutaneously to CDF1 mice (a group consisting of 5 mice). On the other hand, a solution of 0.25 mg/mouse of the compound of Example 9 in 0.05 ml of physilogical saline was given to each of the mice on the portion transplanted with the cells once a day for 4 consecutive days from the 1st day following the transplantation. Ten days later, the tumor tissues were removed, and the weight of tumors was measured.

Series [7] concerns sarcoma 180 cells. The series is described as follows: Antitumor activity, intraperitoneal sarcoma 180, three administrations, life span. It counts as in vivo, ICR mice. The text has this: ICR mice (5 animals per group) were intraperitoneally inoculated with 1×10^5 sarcoma 180 cells per mouse. […] The life span prolonging ratio as compared with the control (no drug treatment) group was 198, and 1 animal survived on day 60.

The subject of another series is MM46 cells. In words: Antitumor activity, intraperitoneal MM46, administration before and after inoculation, survival. It counts as in vivo. The conditions noted are these: 5 animals per group; 0.25 mg/mouse i.p., 4 days before and 4 days after 1×10^4 MM46 cells i.p.; C3H/He mice; controls all died within 19 days. How it is done:
Antitumor activity of the compound of Example 9
The compound of Example 9 was intraperitoneally administered to C3H/He mice (5 animals per group) in a dose of 0.25 mg/mouse for 4 consecutive days.
On the 5th day, 1×10^4 MM46 cells were intraperitoneally inoculated into each mouse, and the compound of Example 9 was again administered intraperitoneally to the mice in a dose of 0.25 mg/mouse for 4 days starting from day 1 after inoculation.
The mice in the control group all died within 19 days after tumor implantation, whereas, in the drug-treated group, 3 animals survived on day 60.

Turning to `CCCCCCCCOCC(COCCCCCCCC)OP(=O)([O-])OCC[N+](C)(C)C` [Example 1, 1,3-Dioctyloxypropane-2-yl 2-trimethylammonioethyl phosphate], the “rate of life span prolongation against the control group (T/C)” value in the series on sarcoma 180 cells [1] was determined as 225. For the same compound, in the series with sarcoma 180 cells [2], the “rate of life prolongation against the control group” value was 458. The “mice survived 60 days” value in the series on sarcoma 180 cells [2] (group of 5 mice, 1 mg/mouse i.p., sarcoma 180 i.p.) was “two”. In addition, the “growth inhibition rate of tumor” value in the series on sarcoma 180 cells [3] was found to be 54%; in the series with sarcoma 180 cells [4], 52%. Further, the MIC came to 6.25 µg/mL in the series with Piricularia oryzae; 3.12 µg/mL in the series with Botrytis cinerea; 6.25 µg/mL against Cercospora beticola; 6.25 µg/mL in the series on Cladosporium herbarum; 6.25 µg/mL in the series with Diaporthe citri; 3.12 µg/mL with Elsinoe fawcetti. For the same compound, the MIC in the series on Helminthosporium oryzae came to 3.12 µg/mL; against Penicilium citrinum, 12.5 µg/mL; in the series on Mucor spinescens, 12.5 µg/mL; against Saccharomyces cerevisiae it was 25 µg/mL.
Turning to `CCCCCCCCCCCCCCCCCCOCC(COP(=O)([O-])OCC[N+](C)(C)C)OC` (stereo not drawn) [compound (XI)], the “blood pressure lowering action (in words)” value in series [5] was “possesses blood-pressure lowering action”. Besides, the platelet aggregating action entry with platelet is recorded as “has platelet aggregating action”.
With `CCCCCCCCOCC(COCCCCCCCC)OP(=O)([O-])OCC[n+]1ccsc1` [Example 3, 1,3-Dioctyloxypropane-2-yl 2-thiazolioethyl phosphate], the “growth inhibition rate of tumor” value in the series with P 388 leukemia cells turned out to be 83%.
As for `CCCCCCCOCC(COCCCCCCC)OP(=O)([O-])OCC[N+](C)(C)C` [Example 10, 1,3-Diheptyloxypropane-2-yl 2-trimethylammonioethyl phosphate], the “rate of life span prolongation against the control group (T/C)” value in the series on sarcoma 180 cells [6] is given as 295.
With `CCCCCCCCOCC(COP(=O)([O-])OCC[N+](C)(C)C)OCCCCCCCC` (stereo not drawn) [2,3-dioctyloxypropyl 2-trimethylammonioethyl phosphate, reference compound], the “rate of life prolongation against the control group” value in the series on sarcoma 180 cells [2] was determined as 195.
As for `CCCCCCCCCOCC(COCCCCCCCCC)OP(=O)([O-])OCC[N+](C)(C)C` [Example 9, 1,3-Dinonyloxypropane-2-yl 2-trimethylammonioethyl phosphate], the “growth inhibition rate of tumor” value in the series with Meth A cells was 76%. The “life span prolonging ratio as compared with the control” value with sarcoma 180 cells [7] (0.33 mg/mouse three times (hour 1, day 1, day 2), 1×10^5 sarcoma 180 cells i.p., ICR mice) worked out at 198. In the series on sarcoma 180 cells [7] (5 animals per group, 0.33 mg/mouse three times, sarcoma 180 i.p.), the “animal survived on day 60” value was 1 animal. In the series with MM46 cells, the “animals survived on day 60” value is given as 3 animals.
